Patent US20220016101A1 (ACADIA Pharmaceuticals Inc., priority 2018, published 2022)

Test system: patients with MDD and an inadequate response to an SSRI or SNRI
Assay: Massachusetts General Hospital Sexual Functioning Index (MGH-SFI), Study ACP-103-042
Type: in vivo, human
Source text: “Massachusetts General Hospital Sexual Functioning Index (MGH-SFI)” is described, for instance, in Labbate and Lare, 2001, Psychother Psychosom. 70(4):221-225. This is a patient facing questionnaire that quantifies sexual dysfunction into 5 functional domains (“interest in sex,” “sexual arousal,” “ability to achieve orgasm,” “ability to maintain erection” (males only), and “sexual satisfaction”). Patients rate each item using a 6-point scale ranging from 1 (good function) to 6 (poor function). High scores indicate poor sexual functioning. […] The determination of the subject's status and eligibility for randomization in Stage 2 was made in a double-blind manner. […] Sexual functioning was assessed using the Massachusetts General Hospital Sexual Functioning Index or MGH-SFI (Labbate and Lare, 2001, Psychother Psychosom. 70(4):221-225). This is a patient facing questionnaire that quantifies sexual dysfunction into 5 functional domains (“interest in sex,” “sexual arousal,” “ability to achieve orgasm,” “ability to maintain erection” [malesonly], and “sexual satisfaction”). Patients rate each item using a 6-point scale ranging from 1 (good function) to 6 (poor function). The time frame for this scale is the past month. This scale was administered at baseline and Week 5 in both stages of the study. High scores indicate poor sexual functioning. In ACP-103-042 the mean scores for MGH-SFI at Baseline was calculated over all 5 domains for males and the 4 domains for females. For MGH-SFI (follow-up version) at Study Weeks 5 and 10, the mean was calculated in the same way as MGH-SFI at Baseline. […] Tables 10-27 summarize the detailed data of MGH-SFI individual items of the overall study group (Tables 10-15), the subgroup of age of <=50 (Tables 16-21) and the subgroup of age of >50 (Table 21-26). In Tables 9-26, ANCOVA=analysis of covariance; OC=observed cases; LSM=least squares mean; CI=confidence interval; SD=standard deviation; SE=standard error. Stage 1: Baseline=Study Week 0, Week 5=Study Week 5; Stage 2: Baseline=Study Week 5, Week 5=Study Weeks 10. LSM from the stage-specific ANCOVA analysis with the change from baseline as the outcome, treatment group as a factor, and the corresponding Baseline value as a covariate. 2-sided p-value for treatment difference from the stage-specific ANCOVA analysis. An treatment effect size (Cohen's d) is calculated using the formula: Effect Size=Least Square mean difference between PIM and PBO/SD. The corresponding 95% confidence interval for an effect size is calculated based on the theoretical probability distribution of the effect size. […] Tables 10-15 and 28-38 summarize the detailed data of MGH-SFI individual items of the overall study group (Tables 10-15), the female subgroup (Tables 33-37) and the male subgroup (Table 38-43). An treatment effect size (Cohen's d) is calculated using the formula: Effect Size=Least Square mean difference between PIM and PBO/SD. The corresponding 95% confidence interval for an effect size is calculated based on the theoretical probability distribution of the effect size. In Tables 10-15 and 28-38, ANCOVA=analysis of covariance; OC=observed cases; LSM=least squares mean; CI=confidence interval; SD=standard deviation; SE=standard error. Stage 1: Baseline=Study Week 0, Week 5=Study Week 5; Stage 2: Baseline=Study Week 5, Week 5=Study Weeks 10. LSM from the stage-specific ANCOVA analysis with the change from baseline as the outcome, treatment group as a factor, and the corresponding Baseline value as a covariate. 2-sided p-value for treatment difference from the stage-specific ANCOVA analysis. An treatment effect size (Cohen's d) is calculated using the formula: Effect Size=Least Square mean difference between PIM and PBO/SD. The corresponding 95% confidence interval for an effect size is calculated based on the theoretical probability distribution of the effect size.

[1] = female subgroup, Stage 2, positive = pimavanserin better than placebo
[2] = male subgroup, Stage 1 (Study Week 0 to 5), PIM 34 mg
[3] = male subgroup, Stage 1 (Study Week 5), PIM 34 mg
[4] = male subgroup, Stage 1, PIM 34 mg
[5] = male subgroup, Stage 1, PIM 34 mg vs placebo, change from baseline to Week 5
[6] = male subgroup, Stage 1, PIM 34 mg, Week 5
[7] = male subgroup, Stage 2 (Study Week 5 to 10), PIM 34 mg
[8] = male subgroup, Stage 2 (Study Week 10), PIM 34 mg

With `CC(C)COc1ccc(CNC(=O)N(Cc2ccc(F)cc2)C2CCN(C)CC2)cc1` [pimavanserin, N-(4-Fluorophenylmethyl)-N-(1-methylpiperidin-4-yl)-N′-(4-(2-methylpropyloxy)phenylmethyl)carbamide] the “MGH-SFI 05: Overall Sexual Satisfaction, Effect Size (Cohen's d)” value [1] was 0.227, the “MGH-SFI 06: Overall Improvement Since Last Medication Change, Effect Size (Cohen's d)” value [1] was 0.167 and the “MGH-SFI 01: Interest in Sex, Change from Baseline to Week 5 Mean (SE)” value [2] was −0.6 (1.04). For the same molecule, the “MGH-SFI 01: Interest in Sex, Change from Baseline to Week 5 Median” value [2] was −1.0, the “MGH-SFI 01: Interest in Sex, Week 5 Mean (SE)” value [3] was 4.1 (0.63) and the “MGH-SFI 01: Interest in Sex, Week 5 Median” value [3] was 5.0. For the same molecule, the “MGH-SFI Item 02: Ability to Get Sexually Aroused or Excited, Change from Baseline to Week 5, Mean (SE)” value [4] was −0.7 (0.61), the “MGH-SFI Item 02: Ability to Get Sexually Aroused or Excited, Change from Baseline to Week 5, Median” value [4] was 0.0 and the “MGH-SFI Item 03: Ability to Achieve Orgasm, Change from Baseline to Week 5, Mean (SE)” value [4] was −0.4 (0.61). The “MGH-SFI Item 03: Ability to Achieve Orgasm, Change from Baseline to Week 5, Median” value [4] was 0.0, the “MGH-SFI Item 04: (Men) Ability to Get and Maintain an Erection, Change from Baseline to Week 5, Mean (SE)” value [4] was −0.3 (0.78) and the “MGH-SFI Item 04: (Men) Ability to Get and Maintain an Erection, Change from Baseline to Week 5, Median” value [4] was 0.0. For the same molecule, the “MGH-SFI Item 05: Overall Sexual Satisfaction, Change from Baseline to Week 5, Mean (SE)” value [4] was −0.6 (0.81), the “MGH-SFI Item 05: Overall Sexual Satisfaction, Change from Baseline to Week 5, Median” value [4] was 0.0 and the “MGH-SFI Item 06: Overall Improvement Since Last Medication Change, Effect Size (Cohen's d)” value (male subgroup, Stage 1, PIM 34 mg vs placebo, Week 5) was 0.257. For the same molecule, the “MGH-SFI Item 02: Ability to Get Sexually Aroused or Excited, Effect Size (Cohen's d)” value [5] was 0.358, the “MGH-SFI Item 03: Ability to Achieve Orgasm, Effect Size (Cohen's d)” value [5] was 0.053 and the “MGH-SFI Item 04: (Men) Ability to Get and Maintain an Erection, Effect Size (Cohen's d)” value [5] was 0.105. For the same molecule, the “MGH-SFI Item 05: Overall Sexual Satisfaction, Effect Size (Cohen's d)” value [5] was 0.047, the “MGH-SFI Item 02: Ability to Get Sexually Aroused or Excited, Week 5, Mean (SE)” value [6] was 3.7 (0.68) and the “MGH-SFI Item 02: Ability to Get Sexually Aroused or Excited, Week 5, Median” value [6] was 4.0. For the same molecule, the “MGH-SFI Item 03: Ability to Achieve Orgasm, Week 5, Mean (SE)” value [6] was 4.1 (0.74), the “MGH-SFI Item 03: Ability to Achieve Orgasm, Week 5, Median” value [6] was 5.0 and the “MGH-SFI Item 04: (Men) Ability to Get and Maintain an Erection, Week 5, Mean (SE)” value [6] was 3.9 (0.70). The “MGH-SFI Item 04: (Men) Ability to Get and Maintain an Erection, Week 5, Median” value [6] was 3.0, the “MGH-SFI Item 05: Overall Sexual Satisfaction, Week 5, Mean (SE)” value [6] was 4.6 (0.69) and the “MGH-SFI Item 05: Overall Sexual Satisfaction, Week 5, Median” value [6] was 5.0. For the same molecule, the “MGH-SFI Item 06: Overall Improvement Since Last Medication Change, Week 5, Mean (SE)” value [6] was 3.3 (0.64), the “MGH-SFI Item 06: Overall Improvement Since Last Medication Change, Week 5, Median” value [6] was 3.0 and the “MGH-SFI 01: Interest in Sex, Effect Size (Cohen's d)” value (male subgroup, Stage 1, positive = pimavanserin better than placebo) was 0.104. The “MGH-SFI 01: Interest in Sex, Change from Baseline to Week 5 Mean (SE)” value [7] was −0.8 (0.32), the “MGH-SFI 01: Interest in Sex, Change from Baseline to Week 5 Median” value [7] was −1.0 and the “MGH-SFI 01: Interest in Sex, Week 5 Mean (SE)” value [8] was 3.6 (0.47). For the same molecule, the “MGH-SFI 01: Interest in Sex, Week 5 Median” value [8] was 4.0 and the “MGH-SFI Item 02: Ability to Get Sexually Aroused or Excited, Change from Baseline to Week 5, Mean (SE)” value (male subgroup, Stage 2, PIM 34 mg) was −0.6 (0.29).
